The nature of data set [1]: Efflux ratio of apparent permeability across basolateral to apical side over apical to basolateral side in human Calu3 cells.
Data set [2] in a line: Apparent permeability across basolateral to apical side in human Calu3 cells.
Data set [3] in a line: Apparent permeability across apical to basolateral side in human Calu3 cells.
Data set [4] can be described thus: Distribution coefficient, log D of the compound. The following applies: octanol/water.

With `Cc1c(F)c(N2CCNC(C)C2)cc2c1c(=O)c(C(=O)O)cn2C1CC1` (stereo unspecified) [GREPAFLOXACIN], the efflux ratio in data set [1] amounted to 3.8. Besides, the Papp B→A in data set [2] was 11.8 ×10⁻⁶ cm/s. The Papp A→B in data set [3] was determined as 3.1 ×10⁻⁶ cm/s. The same compound displayed a logD in data set [4] of 0.03.

As for `C[C@H]1COc2c(N3CCN(C)CC3)c(F)cc3c(=O)c(C(=O)O)cn1c23.C[C@H]1COc2c(N3CCN(C)CC3)c(F)cc3c(=O)c(C(=O)O)cn1c23.O` [LEVOFLOXACIN], in data set [4], the logD is given as -0.41.

Consider `COc1c(N2C[C@@H]3CCCN[C@@H]3C2)c(F)cc2c(=O)c(C(=O)O)cn(C3CC3)c12` [MOXIFLOXACIN], for which the Papp B→A in data set [2] was 10.4 ×10⁻⁶ cm/s. Further, in data set [3], the apical-to-basolateral permeability (Papp A→B) is 5 ×10⁻⁶ cm/s.

As to `CCn1cc(C(=O)O)c(=O)c2cc(F)c(N3CCNCC3)cc21` [NORFLOXACIN], the efflux ratio in data set [1] stood at 3.3. In addition, the apparent permeability from basolateral to apical (Papp B→A) in data set [2] turned out to be 2 ×10⁻⁶ cm/s. Further, the Papp A→B in data set [3] came out at 0.6 ×10⁻⁶ cm/s. In data set [4], this compound displayed a logD of -1.16.
